Results on 20 compounds are retold here after patent US20120220577A1, “GLYCINE B ANTAGONISTS” (Merz Pharma GmbH & Co KgaA, priority 2009, published 2012).

Test [1] deals with T1, glycine binding pocket of the NMDA receptor (Rattus norvegicus, UniProt P35439).
T1 construct: For isolation of the cell membranes, the cortices are homogenized; from tissue; host or cells: rat cerebral cortex membranes (male Sprague-Dawley)
The test can be described thus: [3H]MDL-105,519 displacement studies (rat cortical membranes). As to the method: Anaesthetised male Sprague-Dawley rats (200-250 g, Janvier, Le Genest-Isle, France) are decapitated and their brains removed rapidly. […] For isolation of the cell membranes, the cortices are homogenized in 20 volumes of ice-cold 0.32 M sucrose (Sigma-Aldrich, Taufkirchen, Germany) using a glass-Teflon homogenizer. The homogenate is centrifuged at 1000×g for 10 minutes, the pellet is discarded and the supernatant centrifuged at 20,000×g for 20 minutes. The resulting pellet is re-suspended in 20 volumes of distilled water and centrifuged for 20 minutes at 8000×g. The supernatant and the buffy coat are then centrifuged three times (48,000×g for 20 minutes) in the presence of 50 mM Tris-HCl, pH 8.0 (assay buffer). All centrifugation steps are carried out at 4° C. After resuspension in 5 volumes of 50 mM Tris-HCl, pH 7.5, the membrane suspension is frozen rapidly at −80° C. On the day of assay, the membranes are thawed and washed four times by resuspension in 50 mM Tris-HCl, pH 7.5, and centrifugation at 48,000×g for 20 minutes. The final pellet is suspended in assay buffer. […] The final protein concentration used for our studies is 400 μg/ml.
A robotic system designed for binding assays (Tecan Deutschland GmbH, Crailsheim, Germany) is loaded with the membrane solution, solutions for bound control (buffer/DMSO 20%), unlabeled glycine (1 mM) for evaluation of non-specific binding, all compounds to be tested (at 20-fold concentrations), radioligand and respective 96-well plates.
The protein/receptor concentration is held constant whereas the amount of specific bound radioligand is determined using increasing concentrations of ligand.
Firstly, the assay plates are loaded with membrane solution and are shaken at 4° C. The mother plates are then prepared by pipetting the compounds into assay buffer/20% DMSO to obtain the desired final concentrations (dose response curve with five different concentrations, e.g. 10, 3, 1, 0.3, and 0.1 μM). After transferring radioligand into the assay plates, the compounds are added (including the bound and the non-specific binding control). The final DMSO concentration is 1%. The assay plates are incubated and shaken at 4° C. for 1 h, before the mixture is exhausted as rapidly as possible via a vacuum manifold using the Multiscreen HTS glass fibre (type B) filter plates (Millipore, Schwalbach, Germany) under a constant vacuum of 450 mbar. The membranes are washed four times with cold assay buffer ([…]). 50 μL of Ultima Gold scintillation cocktail (PerkinElmer, Rodgau-Jügesheim, Germany) is added to the wet filter plates and incubated at room temperature overnight before counting the disintegration per minutes using a liquid scintillation counter (MicroBeta, PerkinElmer, Rodgau-Jügesheim, Germany).
The residual radioactivity after displacement of the test compound (n=5) is then corrected with respect to the set controls.

Test [2] addresses NMDA receptor glycine B site (Rattus norvegicus, UniProt P35439). The test can be described thus: Calcium FLIPR studies, rat cortical neurons (NMDA/D-Serine induced intracellular calcium). The class given is cell-based. Set-up: Primary neurons are prepared from cortices of embryonal rats at day 17 of pregnancy; endogenous in cells; host or cells: primary rat cortical neurons (E17, 11-13 DIV). The procedure:
Antagonistic potencies of the test compounds are functionally evaluated using electrophysiological whole cell patch-clamp recordings and/or fluorometric intracellular Ca^2+-imaging (FLIPR) screens.
Sprague-Dawley rat embryos (E 17) are decapitated and neocortices are dissected, trypsinized and carefully triturated. The cell suspension is plated on poly-D-lysine pre-coated 96-well Plates (Greiner, Frickenhausen, Germany) at a cell density of 55.000 cells/well. The neurons are cultivated in Neurobasal media containing B27-Supplement and […] L-Glutamine (Biochrom) at 37° C. in a humidified atmosphere of 5% CO2/95% air. Medium is exchanged completely at day 4 and to 50% on day 7. At the time of experiments neurons are 11-13 days in vitro.
The increase of intracellular calcium after stimulation with 30 μM NMDA and 1 μM D-Serine is measured using the fluorometric imaging plate reader (FLIPR) and the Calcium-4-Kit (both Molecular Devices, Ismaning, Germany). Prior to addition of agonist or antagonist (5 different concentrations, n=5) the medium is aspirated and cells are washed once before loading with 150 μL of loading buffer (1 h at room temperature), consisting of Ca-4 sensitive dye reconstituted in extracellular bath solution, pH 7.3. Subsequently, plates are transferred to FLIPR to detect increases in intracellular calcium after the addition of agonist, measured as relative fluorescence units (RFU). Antagonists are pre-incubated with the cells for 10 min at room temperature before the addition of the agonist and co-agonist.
The fluorescence signal increase after addition of agonist reflects the increase of intracellular calcium. Inconsistencies in the amount of cells per well are normalised by using the spatial uniformity correction of the FLIPR software (Screenworks, Molecular Devices). The mean of replicated temporal data (n=5) is calculated and used for graphical representation. For the evaluation of the antagonistic potency, the calcium changes in response to different concentrations of antagonist are determined using an area under the curve (AUC) calculation. All responses (RFU-values) are determined as percentage of control (=maximum response at 30 μM NMDA and 1 μM D-Serine). IC50 values are calculated according the four parameter logistic equation using GraFit (Erithacus Software).
In general terms: A change in cytosolic calcium serves as a functional read-out for many receptors and channels.

Where [3] appears, read: displacement of 2 nM [3H]-MDL-105,519, rat cortical membranes, read-out: NMDA-MDL 105519-r-CTX - IC50.
[4] abbreviates: rat cortical neurons, stimulation with 30 μM NMDA and 1 μM D-Serine, antagonist pre-incubated 10 min, read-out: NMDA-FLIPR-rCTX-NAM - IC50.

Where two headings read alike, the source gives them in different places.

With `CNC(=O)COc1ccccc1NC(=O)COc1cc(C(=O)O)cc2cc(Cl)cc(Cl)c12` [Example 91, 5,7-Dichloro-4-[(2-methylcarbamoylmethoxy-phenylcarbamoyl)-methoxy]-naphthalene-2-carboxylic acid], the figures for the half-inhibitory concentration (IC50) in test [1] (setting [3]) and in test [2] (setting [4]) were 1.27 µM and 10.8 µM, respectively. The like results for `O=C(O)c1cc(OCC(=O)N2Cc3ccccc3CC2C(=O)O)c2c(Cl)cc(Cl)cc2c1` (stereo not shown) [Example 38, 2-[2-(3-Carboxy-6,8-dichloronaphthalen-1-yloxy)-acetyl]-1,2,3,4-tetrahydroisoquinoline-3-carboxylic acid] were, in that order, 1.35 µM and 10.6 µM.

Take `COCC(Oc1cc(C(=O)O)cc2cc(Cl)cc(Cl)c12)C(=O)Nc1ccccc1` (stereo not shown) [Example 67, 5,7-Dichloro-4-(2-methoxy-1-phenylcarbamoyl-ethoxy)-naphthalene-2-carboxylic acid]: the IC50 in test [1] (setting [3]) was found to be 1.37 µM; in test [2] (setting [4]) it was 6.49 µM.

Regarding `NC(=O)COc1ccccc1NC(=O)COc1cc(C(=O)O)cc2cc(Cl)cc(Cl)c12` [Example 95, 4-[(2-Carbamoylmethoxy-phenylcarbamoyl)-methoxy]-5,7-dichloro-naphthalene-2-carboxylic acid], the IC50 in test [1] (setting [3]) came to 0.641 µM; in test [2] (setting [4]), 7.17 µM. `O=C(COc1cc(C(=O)O)cc2cc(Cl)cc(Cl)c12)Nc1ccc(OCc2nnn[nH]2)cc1` [Example 88, 5,7-Dichloro-4-{[4-(1H-tetrazol-5-ylmethoxy)-phenylcarbamoyl]-methoxy}-naphthalene-2-carboxylic acid]: the results for the IC50 in test [1] (setting [3]) and in test [2] (setting [4]) were 1.54 µM and 3.8 µM, respectively. Take `CC(Oc1cc(C(=O)O)cc2cc(Cl)cc(Cl)c12)C(=O)Nc1cccc(CO)c1` (stereo not shown) [Example 25, 5,7-Dichloro-4-[1-(3-hydroxymethylphenylcarbamoyl)-ethoxy]-naphthalene-2-carboxylic acid]: the concentration for half-maximal inhibition (IC50) in test [1] (setting [3]) stood at 1.03 µM; in test [2] (setting [4]), 7.32 µM. Take `O=C(O)Cc1ccc(NC(=O)COc2cc(C(=O)O)cc3cc(Cl)cc(Cl)c23)cn1` [Example 46, 4-[(6-Carboxymethyl-pyridin-3-ylcarbamoyl)-methoxy]-5,7-dichloro-naphthalene-2-carboxylic acid]: the IC50 was determined as 1.23 µM in test [1] (setting [3]) and 9.41 µM in test [2] (setting [4]). With `O=C(COc1cc(C(=O)O)cc2cc(Cl)cc(Cl)c12)Nc1nnn[nH]1` [Example 64, 5,7-Dichloro-4-[(1H-tetrazol-5-ylcarbamoyl)-methoxy]-naphthalene-2-carboxylic acid], the half-inhibitory concentration (IC50) in test [1] (setting [3]) was found to be 1.26 µM; in test [2] (setting [4]) it was 9.28 µM.

As to `O=C(COc1cc(C(=O)O)cc2cc(Cl)cc(Cl)c12)Nc1ccccc1Cc1nnn[nH]1` [Example 100, 5,7-Dichloro-4-{[2-(1H-tetrazol-5-ylmethyl)-phenylcarbamoyl]-methoxy}-naphthalene-2-carboxylic acid], the IC50 was determined as 0.559 µM in test [1] (setting [3]) and 4.1 µM in test [2] (setting [4]). Regarding `O=C(O)c1cc(OC2CCN(c3ccccc3)C2=O)c2c(Cl)cc(Cl)cc2c1` (stereo not shown) [Example 65, 5,7-Dichloro-4-(2-oxo-1-phenyl-pyrrolidin-3-yloxy)-naphthalene-2-carboxylic acid], the figures for the IC50 in test [1] (setting [3]) and in test [2] (setting [4]) were 1.39 µM and 7.54 µM, respectively. On the same counts, the results for `O=C(O)c1cc(OCC(=O)N2CCc3ccccc3C2)c2c(Cl)cc(Cl)cc2c1` [Example 52, 5,7-Dichloro-4-[2-(3,4-dihydro-1H-isoquinolin-2-yl)-2-oxo-ethoxy]-naphthalene-2-carboxylic acid] are 2.29 µM and 7.35 µM.

Consider `O=C(O)c1cc(OC(C(=O)O)c2ccccc2)c2c(Cl)cc(Cl)cc2c1` (stereo not shown) [Example 32, 4-(Carboxyphenylmethoxy)-5,7-dichloronaphthalene-2-carboxylic acid], for which the IC50 in test [1] (setting [3]) is 1.51 µM; in test [2] (setting [4]), 6.49 µM. The like results for `Cc1ccc(S(=O)(=O)NC(=O)COc2cc(C(=O)O)cc3cc(Cl)cc(Cl)c23)cc1` [Example 36, 5,7-Dichloro-4-[2-oxo-2-(toluene-4-sulfonylamino)-ethoxy]-naphthalene-2-carboxylic acid] were, in that order, 1.52 µM and 5.47 µM. The like results for `O=C(COc1cc(C(=O)O)cc2cc(Cl)cc(Cl)c12)NC(C(=O)O)c1ccccc1` (stereo not shown) [Example 27, 4-{[(Carboxyphenylmethyl)-carbamoyl]-methoxy}-5,7-dichloronaphthalene-2-carboxylic acid] were, in that order, 0.79 µM and 3.5 µM. On the same counts, the results for `O=C(O)c1cc(OCC(=O)N2c3ccccc3CC2c2nnn[nH]2)c2c(Cl)cc(Cl)cc2c1` (stereo not shown) [Example 99, 5,7-Dichloro-4-{2-oxo-2-[2-(1H-tetrazol-5-yl)-2,3-dihydro-indol-1-yl]-ethoxy}-naphthalene-2-carboxylic acid] are 0.909 µM and 5.95 µM. Take `O=C(COc1cc(C(=O)O)cc2cc(Cl)cc(Cl)c12)Nc1cccc(Cc2nnn[nH]2)c1` [Example 90, 5,7-Dichloro-4-{[3-(1H-tetrazol-5-ylmethyl)-phenylcarbamoyl]-methoxy}naphthalene-2-carboxylic acid]: the figures for the concentration for half-maximal inhibition (IC50) in test [1] (setting [3]) and in test [2] (setting [4]) were 0.55 µM and 2.68 µM, respectively. For `CC(Oc1cc(C(=O)O)cc2cc(Cl)cc(Cl)c12)C(=O)Nc1ccccc1CO` (stereo not shown) [Example 17, 5,7-Dichloro-4-[1-(2-hydroxymethylphenylcarbamoyl)-ethoxy]-naphthalene-2-carboxylic acid], the half-maximal inhibitory concentration (IC50) in test [1] was 1.19 µM; in test [2], 12.6 µM. Regarding `CN(C)CCNC(=O)COc1ccccc1NC(=O)COc1cc(C(=O)O)cc2cc(Cl)cc(Cl)c12` [Example 109, 5,7-Dichloro-4-({2-[(2-dimethylamino-ethylcarbamoyl)-methoxy]-phenylcarbamoyl}-methoxy)-naphthalene-2-carboxylic acid], the IC50 in test [1] (setting [3]) was determined as 0.65 µM. As to `O=C(O)c1cc(OCC(=O)N2CCCC2C(=O)O)c2c(Cl)cc(Cl)cc2c1` (stereo not shown) [Example 35, 1-[2-(3-Carboxy-6,8-dichloronaphthalen-1-yloxy)-acetyl]-pyrrolidine-2-carboxylic acid], the IC50 in test [1] (setting [3]) amounted to 1.42 µM. Same read-out and setting: as for `O=C(COc1cc(C(=O)O)cc2cc(Cl)cc(Cl)c12)Nc1cccnc1` [Example 127, 5,7-Dichloro-4-(pyridin-3-ylcarbamoylmethoxy)-naphthalene-2-carboxylic acid], the figure is 0.499 µM.

The IC50 is the concentration at which inhibition is half-maximal.
